Results taken from US20120214862A1, “MODULATION OF FACTOR 7 EXPRESSION” (ISIS Pharmaceuticals, Inc., priority 2009, published 2012).
In the oligonucleotide strings, read from the 5' end, every base follows the letter of its sugar. An asterisk marks phosphorothioate; unmarked linkages are phosphodiester. Other units and linkages are bracketed, terminal groups are in braces. A string of capitals states the bases alone. e = 2'-O-(2-methoxyethyl) (MOE); [5mC] = 5-methylcytosine; d = 2'-deoxy (DNA)

Test system: human Factor 7 mRNA
Assay: Antisense inhibition of human Factor 7 mRNA in HepB3 cells, lipofectin, 50 nM, real-time RT-PCR
Format: cell-based
Conditions: for % Inhibition (human Factor 7 mRNA): 50 nM, ~24 h
How it was run: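 Percent inhibition, untreated cells as reference: derived from RNA collected about 24 hours post-transfection of 4,000-cell wells, with the human RTS 2927 primer probe set and adjustment for total RNA content (RIBOGREEN®).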

[1] = HepB3 cells, lipofectin, 50 nM antisense oligonucleotide, approximately 24 hours, primer probe set RTS 2927, relative to untreated control
[2] = Example 1, HepB3 cells, lipofectin, relative to untreated control cells
[3] = HepB3 cells, gapmers targeted to nucleobases 13760 to 13789 of SEQ ID NO: 1 (Table 10)
[4] = HepB3 cells, gapmers (5-10-5, 3-14-3, 2-13-5 MOE) targeted to nucleobases 4868 to 4899 of SEQ ID NO: 1
[5] = HepB3 cells, gapmers targeted to nucleobases 11830 to 11869 of SEQ ID NO: 1 (Table 9)
[6] = Example 4, HepB3 cells, lipofectin, relative to untreated control

Substance: 416454 (antisense e[5mC]*eG*eT*eG*e[5mC]*dT*d[5mC]*dG*d[5mC]*d[5mC]*d[5mC]*dA*dG*d[5mC]*dA*e[5mC]*e[5mC]*eG*e[5mC]*eG) [compound 416454]
- % Inhibition of human Factor 7 mRNA levels [1]: 56%

Substance: 422286 (antisense eA*eG*d[5mC]*dA*d[5mC]*dA*d[5mC]*dA*dT*dG*dG*dA*dG*dT*d[5mC]*eA*eG*e[5mC]*eA*eT) [compound 422286]
- % Inhibition (human Factor 7 mRNA) (Example 6 microwalk, nucleobases 15098 to 15122 of SEQ ID NO: 1, HepB3, lipofectin): 53%

Substance: 416490 (antisense eA*e[5mC]*eT*e[5mC]*eA*dG*d[5mC]*dA*dA*dG*dA*dG*dT*dG*d[5mC]*eA*eG*e[5mC]*eT*eT) [compound 416490]
- % Inhibition of human Factor 7 mRNA levels [1]: 33%

Substance: 407959 (antisense eG*e[5mC]*eA*eG*eG*dG*dA*dT*dG*dG*d[5mC]*dA*dT*d[5mC]*dG*eA*eG*eT*e[5mC]*e[5mC]) [compound 407959]
- % Inhibition (human Factor 7 mRNA) [2]: 0%

Substance: 407921 (antisense e[5mC]*e[5mC]*eA*e[5mC]*eA*dG*dG*d[5mC]*d[5mC]*dA*dG*dG*dG*d[5mC]*dT*eG*e[5mC]*eT*eG*eG) [compound 407921]
- % Inhibition (human Factor 7 mRNA) [2]: 65%

Substance: 422111 (antisense e[5mC]*eA*e[5mC]*e[5mC]*e[5mC]*dG*d[5mC]*d[5mC]*dG*dG*d[5mC]*dT*d[5mC]*dT*dG*e[5mC]*eT*e[5mC]*eA*eT) [compound 422111]
- % Inhibition of human Factor 7 mRNA levels [3]: 37%

Substance: 416473 (antisense e[5mC]*e[5mC]*e[5mC]*eT*eG*d[5mC]*d[5mC]*d[5mC]*d[5mC]*dT*d[5mC]*dT*dG*dT*d[5mC]*e[5mC]*eA*eG*e[5mC]*eG) [compound 416473]
- % Inhibition of human Factor 7 mRNA levels [1]: 61%

Substance: 422258 (antisense eG*e[5mC]*d[5mC]*dA*d[5mC]*d[5mC]*d[5mC]*dG*d[5mC]*d[5mC]*dG*dG*d[5mC]*dT*d[5mC]*eT*eG*e[5mC]*eT*e[5mC]) [compound 422258]
- % Inhibition of human Factor 7 mRNA levels [3]: 66%

Substance: 422112 (antisense e[5mC]*e[5mC]*eA*e[5mC]*e[5mC]*d[5mC]*dG*d[5mC]*d[5mC]*dG*dG*d[5mC]*dT*d[5mC]*dT*eG*e[5mC]*eT*e[5mC]*eA) [compound 422112]
- % Inhibition of human Factor 7 mRNA levels [3]: 61%

Substance: 422181 (antisense eG*e[5mC]*e[5mC]*dA*d[5mC]*d[5mC]*d[5mC]*dG*d[5mC]*d[5mC]*dG*dG*d[5mC]*dT*d[5mC]*dT*dG*e[5mC]*eT*e[5mC]) [compound 422181]
- % Inhibition of human Factor 7 mRNA levels [3]: 66%

Substance: 407958 (antisense eG*e[5mC]*e[5mC]*eG*eT*dG*d[5mC]*dT*dT*dG*d[5mC]*d[5mC]*dG*dG*dA*eG*eT*e[5mC]*eT*eG) [compound 407958]
- % Inhibition (human Factor 7 mRNA) [2]: 58%

Substance: 407919 (antisense eT*e[5mC]*eG*eA*eT*dG*dT*dA*d[5mC]*dT*dG*dG*dG*dA*dG*eA*e[5mC]*e[5mC]*e[5mC]*eT) [compound 407919]
- % Inhibition (human Factor 7 mRNA) [2]: 84%

Substance: 422147 (antisense eG*eA*eG*e[5mC]*e[5mC]*d[5mC]*dG*dA*dG*dT*dT*d[5mC]*dT*dG*d[5mC]*eA*eG*eG*eA*eG) [compound 422147]
- % Inhibition of human Factor 7 mRNA levels [4]: 64%

Substance: 407897 (antisense eG*e[5mC]*eT*eT*eG*dG*dT*dG*d[5mC]*d[5mC]*d[5mC]*dG*dT*dG*dT*eG*eG*eT*e[5mC]*eA) [compound 407897]
- % Inhibition (human Factor 7 mRNA) [2]: 77%

Substance: 422148 (antisense eG*eG*eA*eG*e[5mC]*d[5mC]*d[5mC]*dG*dA*dG*dT*dT*d[5mC]*dT*dG*e[5mC]*eA*eG*eG*eA) [compound 422148]
- % Inhibition of human Factor 7 mRNA levels [4]: 57%

Substance: 422161 (antisense eA*e[5mC]*eA*dA*dT*dG*dG*dT*d[5mC]*dA*dG*dG*dG*d[5mC]*dT*dG*dG*eT*eT*eT) [compound 422161]
- % Inhibition of human Factor 7 mRNA levels [5]: 53%

Substance: 422143 (antisense e[5mC]*e[5mC]*eG*eA*eG*dT*dT*d[5mC]*dT*dG*d[5mC]*dA*dG*dG*dA*eG*e[5mC]*eG*eG*e[5mC]) [compound 422143]
- % Inhibition of human Factor 7 mRNA levels [4]: 70%

Substance: 422097 (antisense eG*eA*eG*eA*e[5mC]*dA*dA*dT*dG*dG*dT*d[5mC]*dA*dG*dG*eG*e[5mC]*eT*eG*eG) [compound 422097]
- % Inhibition of human Factor 7 mRNA levels [5]: 59%

Substance: 407955 (antisense eT*eG*eT*eG*eA*dA*dA*dT*dA*dT*d[5mC]*dA*dT*dT*dG*eA*e[5mC]*eA*eA*eG) [compound 407955]
- % Inhibition (human Factor 7 mRNA) [2]: 3%

Substance: 416540 (antisense eG*eG*eA*e[5mC]*eT*dG*dG*dT*dG*dT*d[5mC]*dA*dT*d[5mC]*dT*eG*eG*eG*eA*e[5mC]) [compound 416540]
- % Inhibition of human Factor 7 mRNA levels [1]: 38%

Substance: 416523 (antisense eT*e[5mC]*eT*e[5mC]*eG*dA*dG*dG*dG*d[5mC]*dT*dG*dA*dG*dA*eA*eT*eT*eG*e[5mC]) [compound 416523]
- % Inhibition of human Factor 7 mRNA levels [1]: 18%

Substance: 416465 (antisense e[5mC]*eA*e[5mC]*eT*eG*dT*d[5mC]*d[5mC]*d[5mC]*d[5mC]*d[5mC]*dT*dT*dG*d[5mC]*eA*eG*eG*eA*eG) [compound 416465]
- % Inhibition of human Factor 7 mRNA levels [1]: 51%

Substance: 422117 (antisense eG*eG*eA*eA*eG*dA*dA*dG*dG*dG*dA*d[5mC]*dG*dG*dA*eA*eG*eG*eT*eG) [compound 422117]
- % Inhibition (human Factor 7 mRNA) [6]: 1%

Substance: 407920 (antisense eT*eG*eA*eG*e[5mC]*dG*d[5mC]*dA*dT*dG*dA*dG*d[5mC]*dT*dT*eT*eT*eG*e[5mC]*eA) [compound 407920]
- % Inhibition (human Factor 7 mRNA) [2]: 65%

Substance: 422159 (antisense eA*eA*eT*dG*dG*dT*d[5mC]*dA*dG*dG*dG*d[5mC]*dT*dG*dG*dT*dT*eT*eT*eG) [compound 422159]
- % Inhibition of human Factor 7 mRNA levels [5]: 45%

Substance: 416439 (antisense eG*eT*e[5mC]*e[5mC]*eT*dT*dG*d[5mC]*dA*dG*dG*dA*dG*d[5mC]*d[5mC]*e[5mC]*e[5mC]*e[5mC]*eA*eT) [compound 416439]
- % Inhibition of human Factor 7 mRNA levels [1]: 56%

Substance: 422146 (antisense eA*eG*e[5mC]*e[5mC]*e[5mC]*dG*dA*dG*dT*dT*d[5mC]*dT*dG*d[5mC]*dA*eG*eG*eA*eG*e[5mC]) [compound 422146]
- % Inhibition of human Factor 7 mRNA levels [4]: 58%

Substance: 407622 (antisense eT*e[5mC]*eA*e[5mC]*e[5mC]*dA*dA*d[5mC]*dA*dA*d[5mC]*dA*dG*dG*dA*e[5mC]*e[5mC]*eT*eG*e[5mC]) [compound 407622]
- % Inhibition (human Factor 7 mRNA) [2]: 55%

Substance: 422119 (antisense eG*e[5mC]*eG*eG*eA*dA*dG*dA*dA*dG*dG*dG*dA*d[5mC]*dG*eG*eA*eA*eG*eG) [compound 422119]
- % Inhibition (human Factor 7 mRNA) [6]: 39%

Substance: 422246 (antisense e[5mC]*eT*dG*dA*dG*dG*dA*dG*dA*d[5mC]*dA*dA*dT*dG*dG*eT*e[5mC]*eA*eG*eG) [compound 422246]
- % Inhibition of human Factor 7 mRNA levels [5]: 46%

Substance: 422266 (antisense e[5mC]*eG*d[5mC]*dG*dG*dA*dA*dG*dA*dA*dG*dG*dG*dA*d[5mC]*eG*eG*eA*eA*eG) [compound 422266]
- % Inhibition (human Factor 7 mRNA) [6]: 13%

Substance: 416569 (antisense eG*e[5mC]*e[5mC]*eT*eG*dG*dT*dG*dT*dG*d[5mC]*dA*d[5mC]*dA*d[5mC]*eA*eT*eT*eG*eT) [compound 416569]
- % Inhibition of human Factor 7 mRNA levels [1]: 12%

Substance: 422090 (antisense eG*eG*eT*e[5mC]*eA*dG*dG*dG*d[5mC]*dT*dG*dG*dT*dT*dT*eT*eG*eG*eA*eG) [compound 422090]
- % Inhibition of human Factor 7 mRNA levels [5]: 42%

Substance: 422102 (antisense e[5mC]*eT*eG*eA*eG*dG*dA*dG*dA*d[5mC]*dA*dA*dT*dG*dG*eT*e[5mC]*eA*eG*eG) [compound 422102]
- % Inhibition of human Factor 7 mRNA levels [5]: 62%

Substance: 416422 (antisense eA*eG*e[5mC]*eG*eA*d[5mC]*d[5mC]*d[5mC]*d[5mC]*dG*d[5mC]*d[5mC]*dT*dG*d[5mC]*eA*eG*e[5mC]*e[5mC]*eA) [compound 416422]
- % Inhibition of human Factor 7 mRNA levels [1]: 8%

Substance: 416489 (antisense eG*eT*eG*e[5mC]*eA*dG*d[5mC]*dT*dT*dG*d[5mC]*d[5mC]*dA*dG*dG*eT*e[5mC]*e[5mC]*eT*e[5mC]) [compound 416489]
- % Inhibition of human Factor 7 mRNA levels [1]: 38%

Substance: 422139 (antisense eT*eT*e[5mC]*eT*eG*d[5mC]*dA*dG*dG*dA*dG*d[5mC]*dG*dG*d[5mC]*e[5mC]*eT*eA*eA*eA) [compound 422139]
- % Inhibition of human Factor 7 mRNA levels [4]: 66%

Substance: 422141 (antisense eA*eG*eT*eT*e[5mC]*dT*dG*d[5mC]*dA*dG*dG*dA*dG*d[5mC]*dG*eG*e[5mC]*e[5mC]*eT*eA) [compound 422141]
- % Inhibition of human Factor 7 mRNA levels [4]: 64%

Substance: 422273 (antisense eT*eA*d[5mC]*dT*dG*dA*dG*d[5mC]*dG*d[5mC]*dG*dG*dA*dA*dG*eA*eA*eG*eG*eG) [compound 422273]
- % Inhibition (human Factor 7 mRNA) [6]: 0%

Substance: 416518 (antisense eG*eG*eG*eT*eG*dA*d[5mC]*d[5mC]*dA*d[5mC]*dA*d[5mC]*dA*dT*dT*eT*e[5mC]*e[5mC]*eT*eG) [compound 416518]
- % Inhibition of human Factor 7 mRNA levels [1]: 55%
